Legend:
ABUTH (Velvetleaf) [1] = assay: Postemergence herbicidal evaluation; format: in vivo, Abutilon theophrasti; settings: postemergence
How it was run: (§1)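 Compound is applied as a foliar spray to seedlings about two weeks old, formulated in equal parts acetone and water with 0.5% TWEEN 20 and delivered at 40 psi to give about 0.0156–0.500 kg per hectare. Injury is rated visually 0–9 after four to five weeks.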

[2] = system: CHEAL (Lambsquarters, Common); assay: Postemergence herbicidal evaluation; format: in vivo, Chenopodium album; settings: postemergence
How it was run: as §1

[3] = system: IPOHE (Morningglory, Ivyleaf); assay: Postemergence herbicidal evaluation; format: in vivo, Ipomoea hederacea; settings: postemergence
How it was run: as §1

ECHCG (Barnyardgrass) [4] = assay: Postemergence herbicidal evaluation; format: in vivo, Echinochloa crus-galli; settings: postemergence
How it was run: as §1

SETVI (Foxtail, Green) = assay: Postemergence herbicidal evaluation; format: in vivo, Setaria viridis; settings: postemergence
How it was run: as §1

ORYSAT (Rice, Tebonnet) = assay: Postemergence herbicidal evaluation; format: in vivo, Oryza sativa, (L.) Tebonnet; settings: postemergence
How it was run: as §1

ZEAMX (Corn, Field) [5] = assay: Postemergence herbicidal evaluation; format: in vivo, Zea mays; settings: postemergence
How it was run: as §1

ABUTH (Velvetleaf) [6] = assay: Preemergence herbicidal evaluation; format: in vivo, Abutilon theophrasti; settings: preemergence, rated 4-5 weeks after treatment, 0-9 scale
How it was run: (§2)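 Greenhouse preemergence test: seed-soil mix sown on ~1 inch soil; aqueous acetone spray at equivalent of ~0.0156–0.500 kg/ha; greenhouse-held and watered; scored 0–9 visually at 4–5 weeks.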

CASOB (Sicklepod) = assay: Preemergence herbicidal evaluation; format: in vivo, Cassia obtusifolia; settings: preemergence, rated 4-5 weeks after treatment, 0-9 scale
How it was run: as §2

[7] = system: CHEAL (Lambsquarters, Common); assay: Preemergence herbicidal evaluation; format: in vivo, Chenopodium album; settings: preemergence, rated 4-5 weeks after treatment, 0-9 scale
How it was run: as §2

[8] = system: IPOHE (Morningglory, Ivyleaf); assay: Preemergence herbicidal evaluation; format: in vivo, Ipomoea hederacea; settings: preemergence, rated 4-5 weeks after treatment, 0-9 scale
How it was run: as §2

ECHCG (Barnyardgrass) [9] = assay: Preemergence herbicidal evaluation; format: in vivo, Echinochloa crus-galli; settings: preemergence, rated 4-5 weeks after treatment, 0-9 scale
How it was run: as §2

[10] = system: GLXMAW (Soybean, Williams); assay: Preemergence herbicidal evaluation; format: in vivo, Glycine max, (L.) Merr. cv Williams; settings: preemergence, rated 4-5 weeks after treatment, 0-9 scale
How it was run: as §2

[11] = system: TRZAWR (Wheat, Winter, cv Riband); assay: Preemergence herbicidal evaluation; format: in vivo, Triticum aestivum; settings: preemergence, rated 4-5 weeks after treatment, 0-9 scale
How it was run: as §2

ZEAMX (Corn, Field) [12] = assay: Preemergence herbicidal evaluation; format: in vivo, Zea mays; settings: preemergence, rated 4-5 weeks after treatment, 0-9 scale
How it was run: as §2

CYPIR (Rice Flatsedge) = assay: Postemergence weed control under flooded paddy conditions; format: in vivo, Cyperus iria; settings: postemergence weeds, rated 3 to 4 weeks after treatment
How it was run: (§3)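 Containers holding 3–5 cm weeds and rice at 1.5–2.5 leaves are flooded to 1.5–3 cm above soil. Compound in 50/50 v/v aqueous/acetone is then added directly to the water, about 0.0313–0.500 kg/ha. Plants are kept in the greenhouse and rated 0–9 visually at 3–4 weeks.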

CYPSE (Flatsedge) = assay: as above; format: in vivo, Cyperus serotinus; settings: postemergence weeds, rated 3 to 4 weeks after treatment
How it was run: as §3

CCOC(=O)CN1C(=O)C(CC(=O)NOC)SC1=Nc1cc(-n2c(=O)cc(C(F)(F)F)n(C)c2=O)c(F)cc1Cl (centres unmarked) [Compound 83, Ethyl 2-{{2-chloro-5-[3,6-dihydro-3-methyl-2,6-dioxo-4-(trifluoromethyl)-1(2H)-pyrimidinyl]-4-fluorophenyl}imino}-5-[(methoxycarbamoyl)methyl]-4-oxo-3-thiazolidineacetate]
ABUTH herbicidal rating (ABUTH (Velvetleaf) [1]; rate 0.0156 kg/ha): 9.0
ABUTH herbicidal rating (ABUTH (Velvetleaf) [1]; rate 0.0313 kg/ha): 9.0
ABUTH herbicidal rating (ABUTH (Velvetleaf) [1]; rate 0.0625 kg/ha): 9.0
ABUTH herbicidal rating (ABUTH (Velvetleaf) [1]; rate 0.1250 kg/ha): 9.0
CHEAL herbicidal rating ([2]; rate 0.0156 kg/ha): 5.0
CHEAL herbicidal rating ([2]; rate 0.0313 kg/ha): 7.0
CHEAL herbicidal rating ([2]; rate 0.0625 kg/ha): 9.0
CHEAL herbicidal rating ([2]; rate 0.1250 kg/ha): 9.0
IPOHE herbicidal rating ([3]; rate 0.0156 kg/ha): 9.0
IPOHE herbicidal rating ([3]; rate 0.0313 kg/ha): 9.0
IPOHE herbicidal rating ([3]; rate 0.0625 kg/ha): 9.0
IPOHE herbicidal rating ([3]; rate 0.1250 kg/ha): 9.0
ECHCG herbicidal rating (ECHCG (Barnyardgrass) [4]; rate 0.0156 kg/ha): 0.0
ECHCG herbicidal rating (ECHCG (Barnyardgrass) [4]; rate 0.0313 kg/ha): 2.0
ECHCG herbicidal rating (ECHCG (Barnyardgrass) [4]; rate 0.0625 kg/ha): 4.0
ECHCG herbicidal rating (ECHCG (Barnyardgrass) [4]; rate 0.1250 kg/ha): 9.0
SETVI herbicidal rating (SETVI (Foxtail, Green); rate 0.0156 kg/ha): 0.0
SETVI herbicidal rating (SETVI (Foxtail, Green); rate 0.0313 kg/ha): 2.0
SETVI herbicidal rating (SETVI (Foxtail, Green); rate 0.0625 kg/ha): 8.0
SETVI herbicidal rating (SETVI (Foxtail, Green); rate 0.1250 kg/ha): 8.0
ORYSAT herbicidal rating (ORYSAT (Rice, Tebonnet); rate 0.0156 kg/ha): 1.5
ORYSAT herbicidal rating (ORYSAT (Rice, Tebonnet); rate 0.0313 kg/ha): 2.5
ORYSAT herbicidal rating (ORYSAT (Rice, Tebonnet); rate 0.0625 kg/ha): 3.0
ORYSAT herbicidal rating (ORYSAT (Rice, Tebonnet); rate 0.1250 kg/ha): 3.0
ZEAMX herbicidal rating (ZEAMX (Corn, Field) [5]; rate 0.0156 kg/ha): 4.5
ZEAMX herbicidal rating (ZEAMX (Corn, Field) [5]; rate 0.0313 kg/ha): 7.5
ZEAMX herbicidal rating (ZEAMX (Corn, Field) [5]; rate 0.0625 kg/ha): 7.5
ZEAMX herbicidal rating (ZEAMX (Corn, Field) [5]; rate 0.1250 kg/ha): 7.5
ABUTH rating (ABUTH (Velvetleaf) [6]; 0.0156 kg/ha): 4.0
ABUTH rating (ABUTH (Velvetleaf) [6]; 0.0313 kg/ha): 6.0
ABUTH rating (ABUTH (Velvetleaf) [6]; 0.0625 kg/ha): 9.0
ABUTH rating (ABUTH (Velvetleaf) [6]; 0.1250 kg/ha): 9.0
ABUTH rating (ABUTH (Velvetleaf) [6]; 0.2500 kg/ha): 9.0
ABUTH rating (ABUTH (Velvetleaf) [6]; 0.5000 kg/ha): 9.0
CASOB rating (CASOB (Sicklepod); 0.0156 kg/ha): 0.0
CASOB rating (CASOB (Sicklepod); 0.0313 kg/ha): 0.0
CASOB rating (CASOB (Sicklepod); 0.0625 kg/ha): 0.0
CASOB rating (CASOB (Sicklepod); 0.1250 kg/ha): 0.0
CASOB rating (CASOB (Sicklepod); 0.2500 kg/ha): 3.0
CASOB rating (CASOB (Sicklepod); 0.5000 kg/ha): 3.0
CHEAL rating ([7]; 0.0156 kg/ha): 9.0
CHEAL rating ([7]; 0.0313 kg/ha): 9.0
CHEAL rating ([7]; 0.0625 kg/ha): 9.0
CHEAL rating ([7]; 0.1250 kg/ha): 9.0
CHEAL rating ([7]; 0.2500 kg/ha): 9.0
CHEAL rating ([7]; 0.5000 kg/ha): 9.0
IPOHE rating ([8]; 0.0156 kg/ha): 0.0
IPOHE rating ([8]; 0.0313 kg/ha): 0.0
IPOHE rating ([8]; 0.0625 kg/ha): 0.0
IPOHE rating ([8]; 0.1250 kg/ha): 3.0
IPOHE rating ([8]; 0.2500 kg/ha): 9.0
IPOHE rating ([8]; 0.5000 kg/ha): 9.0
ECHCG rating (ECHCG (Barnyardgrass) [9]; 0.0156 kg/ha): 0.0
ECHCG rating (ECHCG (Barnyardgrass) [9]; 0.0313 kg/ha): 0.0
ECHCG rating (ECHCG (Barnyardgrass) [9]; 0.0625 kg/ha): 0.0
ECHCG rating (ECHCG (Barnyardgrass) [9]; 0.1250 kg/ha): 0.0
ECHCG rating (ECHCG (Barnyardgrass) [9]; 0.2500 kg/ha): 0.0
ECHCG rating (ECHCG (Barnyardgrass) [9]; 0.5000 kg/ha): 4.0
GLXMAW rating ([10]; 0.0156 kg/ha): 0.0
GLXMAW rating ([10]; 0.0313 kg/ha): 0.0
GLXMAW rating ([10]; 0.0625 kg/ha): 0.0
GLXMAW rating ([10]; 0.1250 kg/ha): 0.0
GLXMAW rating ([10]; 0.2500 kg/ha): 5.0
GLXMAW rating ([10]; 0.5000 kg/ha): 7.0
TRZAWR rating ([11]; 0.0156 kg/ha): 0.0
TRZAWR rating ([11]; 0.0313 kg/ha): 0.0
TRZAWR rating ([11]; 0.0625 kg/ha): 0.0
TRZAWR rating ([11]; 0.1250 kg/ha): 0.0
TRZAWR rating ([11]; 0.2500 kg/ha): 0.0
TRZAWR rating ([11]; 0.5000 kg/ha): 5.0
ZEAMX rating (ZEAMX (Corn, Field) [12]; 0.0156 kg/ha): 0.0
ZEAMX rating (ZEAMX (Corn, Field) [12]; 0.0313 kg/ha): 0.0
ZEAMX rating (ZEAMX (Corn, Field) [12]; 0.0625 kg/ha): 0.0
ZEAMX rating (ZEAMX (Corn, Field) [12]; 0.1250 kg/ha): 0.0
ZEAMX rating (ZEAMX (Corn, Field) [12]; 0.2500 kg/ha): 0.0
ZEAMX rating (ZEAMX (Corn, Field) [12]; 0.5000 kg/ha): 7.0
Herbicidal rating CYPIR (CYPIR (Rice Flatsedge); Rate 0.0313 kg/ha): 5.0
Herbicidal rating CYPIR (CYPIR (Rice Flatsedge); Rate 0.0625 kg/ha): 6.0
Herbicidal rating CYPIR (CYPIR (Rice Flatsedge); Rate 0.1250 kg/ha): 6.0
Herbicidal rating CYPIR (CYPIR (Rice Flatsedge); Rate 0.2500 kg/ha): 7.0
Herbicidal rating CYPSE (CYPSE (Flatsedge); Rate 0.0313 kg/ha): 0.0
Herbicidal rating CYPSE (CYPSE (Flatsedge); Rate 0.1250 kg/ha): 3.0
Herbicidal rating CYPSE (CYPSE (Flatsedge); Rate 0.2500 kg/ha): 5.0

From patent publication US20020137929A1, “1 - (3-heterocyclylphenyl) isothiourea, -isourea, -guanidine and -amidine herbicidal agents” (Intellectual Property Department, BASF Aktiengesellschaft, priority 1998, published 2002)
